Experimental findings from publication PMC11859825, “Discovery of Sphingosine Kinase Inhibition by Modified Quinoline-5,8-Diones” (Pharmaceuticals, 2025) are described below.

The structures appear in SMILES notation. Values joined by “and” are separate entries in the source; they are usually repeats but may differ in a detail not shown here. Identical values can stand only once. Like-named read-outs stand apart in the source and are kept apart here.

As a reminder, the IC50 is the midpoint of a concentration-inhibition curve. Broadly, the inhibition is the change of the read-out against control, counted positive when it falls.

Assay [1] concerns NCI-60 cell line panel. The assay can be described thus: NCI60 one-dose anticancer screen. Format: cell-based, human. Conditions: 10 μM, mean growth percentage across 60 cell lines. Here is the method:
A preliminary anticancer study was conducted through the National Cancer Institute 60 human tumour cell line panel (NCI60) on a representative selection of the aryl-ether quinoline-5,8-diones (Table 2). […].
One-dose study: Tested compounds were initially solubilised in DMSO, diluted into RPMI 1640 and 5% fetal bovine serum/L-glutamine and added to 96-well plates containing cell lines previously cultured for 24 h. After 48 h of incubation, the media were removed, and the cells were fixed and stained with sulforhodamine B to determine overall percent growth/total protein content. Unbound dye was removed with five washes of 1% acetic acid, and the plates were allowed to air dry. The dye was then resolubilised in Tris buffer, and the colourimetric absorbance was measured (515 nm). Growth inhibition was measured relative to the response generated from proliferating cells cultured under identical conditions for 48 h. Data from one-dose experiments pertain to the percentage growth at 10 μM [60, 61].

For assay [2], the target named is recombinant human SphK1 (Homo sapiens, UniProt Q9NYA1). The assay can be described thus: Fluorometric NBD-sphingosine sphingosine kinase inhibition assay, SphK1. Particulars: for IC50: IC50 against SphK1.
Description: (§1) The fluorescence-based assay involved incubating the quinoline-5,8-diones with SphK isoforms individually (recombinant SphK1 and SphK2 in duplicate) [41].
(§2) The relevant enzymes and inhibitors were incubated in total reaction volumes of 100 µL with 10 µM NBD-sphingosine, 500 µM 4-deoxypyridoxine and 1 mM Mg-ATP in assay buffer (100 mM Tris/HCl (pH 7.4), 150 mM NaCl, 2 mM Na3VO4 and 10 mM NaF) for 30 min at 37 °C. A reaction mixture containing no test SphK inhibitor served as the positive control, while a reaction mixture containing no Mg-ATP served as the negative control. Post-incubation, 100 µL of potassium phosphate buffer, pH 8.5, was added to each Eppendorf, followed by 500 µL of 2:1 Chloroform/Methanol. After brief mixing with a vortex, phases were separated by centrifugation at 2000 rpm for 5 min. […] Data are expressed as mean SD from a minimum of 2 independent experiments. […] From this, the IC50 values of several test inhibitors were calculated.
In assay [3] the target is T1, recombinant human SphK2 (Homo sapiens, UniProt Q9NRA0).
T1 sequence (Q9NRA0 1-654): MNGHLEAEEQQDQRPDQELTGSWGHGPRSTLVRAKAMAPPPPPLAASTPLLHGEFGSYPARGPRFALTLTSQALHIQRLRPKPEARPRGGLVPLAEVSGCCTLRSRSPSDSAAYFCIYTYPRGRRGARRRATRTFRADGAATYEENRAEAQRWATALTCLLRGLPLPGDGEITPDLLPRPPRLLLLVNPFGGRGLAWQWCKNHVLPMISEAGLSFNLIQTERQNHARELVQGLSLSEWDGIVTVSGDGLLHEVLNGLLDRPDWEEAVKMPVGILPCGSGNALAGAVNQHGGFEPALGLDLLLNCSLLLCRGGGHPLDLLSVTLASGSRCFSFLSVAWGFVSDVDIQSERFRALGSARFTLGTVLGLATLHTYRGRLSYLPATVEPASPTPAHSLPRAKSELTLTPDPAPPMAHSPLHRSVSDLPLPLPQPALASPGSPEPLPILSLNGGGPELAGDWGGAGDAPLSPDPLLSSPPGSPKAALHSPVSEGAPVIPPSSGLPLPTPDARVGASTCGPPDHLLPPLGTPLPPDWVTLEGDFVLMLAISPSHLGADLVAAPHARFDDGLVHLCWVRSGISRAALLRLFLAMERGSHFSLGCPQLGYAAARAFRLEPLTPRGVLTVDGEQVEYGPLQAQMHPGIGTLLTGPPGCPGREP
Description: Fluorometric NBD-sphingosine sphingosine kinase inhibition assay, SphK2. Conditions: for IC50: IC50 against SphK2.
Description: as §1, §2

[4] abbreviates: read-out: SphK1 inhibition, 10 μM compound.
Where [5] appears, read: read-out: Spk1 % (inhibition), Average, 10 μM, Tables S3-S5.
The mark [6] stands for this setting: read-out: Spk1 % (inhibition), replicate A, 10 μM, Tables S3-S5.
The mark [7] stands for this setting: read-out: Spk1 % (inhibition), replicate B, 10 μM, Tables S3-S5.
The mark [8] stands for this setting: read-out: SphK2 inhibition, 10 μM compound.
Where [9] appears, read: read-out: Spk2 % (inhibition), Average, 10 μM, Tables S3-S5.
[10] abbreviates: read-out: Spk2 % (inhibition), replicate A, 10 μM, Tables S3-S5.
Setting [11] is: read-out: Spk2 % (inhibition), replicate B, 10 μM, Tables S3-S5.

Sequence of recombinant human SphK1 (Q9NYA1 whole entry): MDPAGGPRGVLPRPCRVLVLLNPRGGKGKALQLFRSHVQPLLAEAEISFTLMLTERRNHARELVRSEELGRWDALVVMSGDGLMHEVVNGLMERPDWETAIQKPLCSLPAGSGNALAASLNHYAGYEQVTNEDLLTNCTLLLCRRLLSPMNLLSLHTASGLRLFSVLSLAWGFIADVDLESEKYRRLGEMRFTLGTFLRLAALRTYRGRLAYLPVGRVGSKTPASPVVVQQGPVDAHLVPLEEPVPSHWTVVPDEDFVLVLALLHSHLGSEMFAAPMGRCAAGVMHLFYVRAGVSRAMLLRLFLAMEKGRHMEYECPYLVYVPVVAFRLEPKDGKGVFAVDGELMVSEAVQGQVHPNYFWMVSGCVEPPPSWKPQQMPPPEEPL

On to `COc1ccc(OC2=CC(=O)c3ccc(C)nc3C2=O)cc1` [Compound 4], for which, in assay [1], the “Mean Growth (%)” value was found to be 84.4%. The half-inhibitory concentration (IC50) in assay [2] was 30.2 µM and 30 µM; in assay [3] it was 8.47 µM and 8 µM. Moreover, the inhibition at 10 µM in assay [2] (setting [4]) was found to be 69%; in assay [2] (setting [5]), 69.2%; in assay [2] (setting [6]), 58.5%; in assay [2] (setting [7]), 77.5%; in assay [3] (setting [8]), 37%; in assay [3] (setting [9]) it was 36.8%. Further, the inhibition at 10 µM in assay [3] (setting [10]) came to 37.5%; in assay [3] (setting [11]) it was 36.3%. Besides, the “Selectivity between SphK1 and SphK2 (in words)” value in assay [2] (single-concentration screen, SphK1 versus SphK2) was “a level of selectivity for SphK1”.
In the case of `COc1cccc(OC2=CC(=O)c3ccc(C)nc3C2=O)c1` [Compound 5, 7-(3-Methoxyphenoxy)-2-methylquinoline-5,8-dione], the “Mean Growth (%)” value in assay [1] was determined as 88.5%. Besides, the inhibition at 10 µM in assay [2] (setting [5]) worked out at 39.9%; in assay [2] (setting [6]) it was 37.8%; in assay [2] (setting [7]), 41.5%; in assay [3] (setting [9]), 49.7%; in assay [3] (setting [10]), 50.1%; in assay [3] (setting [11]), 49.3%.
`Cc1ccc2c(n1)C(=O)C(Oc1ccc(F)cc1)=CC2=O` [Compound 6, 7-(4-Fluorophenoxy)-2-methylquinoline-5,8-dione]: the “Mean Growth (%)” value in assay [1] is 88.2%. Besides, the inhibition at 10 µM in assay [2] (setting [4]) was at least 54%; in assay [2] (setting [5]), 54.2%; in assay [2] (setting [6]), 53.4%; in assay [2] (setting [7]) it was 54.8%; in assay [3] (setting [8]), at least 56%; in assay [3] (setting [9]) it was 59.6%. Also, the inhibition at 10 µM in assay [3] (setting [10]) stood at 58.6%; in assay [3] (setting [11]) it was 60.4%.
On to `Cc1ccc2c(n1)C(=O)C(Oc1ccc(C#N)cc1)=CC2=O` [Compound 7, 2-Methyl-7-(4-(cyano)phenoxy)quinoline-5,8-dione], for which the “Mean Growth (%)” value in assay [1] stood at 97.3%. Also, the inhibition at 10 µM was at least 54% in assay [2] (setting [4]); 54.7% in assay [2] (setting [5]); 54.1% in assay [2] (setting [6]); 55.2% in assay [2] (setting [7]); at least 56% in assay [3] (setting [8]); 55.6% in assay [3] (setting [9]). The inhibition at 10 µM is 53.6% in assay [3] (setting [10]) and 57.2% in assay [3] (setting [11]).
`Cc1ccc2c(n1)C(=O)C(Oc1ccc(Cl)c(Cl)c1)=CC2=O` [Compound 8, 7-(3,4-Dichlorophenoxy)-2-methylquinoline-5,8-dione]: the inhibition at 10 µM in assay [2] (setting [4]) is 26%; in assay [2] (setting [5]), 25.3%; in assay [2] (setting [6]), 17%; in assay [2] (setting [7]) it was 32.1%; in assay [3] (setting [9]), 37.8%; in assay [3] (setting [10]) it was 36%. The inhibition at 10 µM in assay [3] (setting [11]) amounted to 39.2%.
As to `Cc1ccc2c(n1)C(=O)C(Oc1ccc(F)c(F)c1)=CC2=O` [Compound 9, 7-(3,4-Difluorophenoxy)-2-methylquinoline-5,8-dione], the inhibition at 10 µM was 20% in assay [2] (setting [4]); 20.3% in assay [2] (setting [5]); 14.4% in assay [2] (setting [6]); 25.1% in assay [2] (setting [7]); 25.2% in assay [3] (setting [9]); 27.4% in assay [3] (setting [10]). The inhibition at 10 µM in assay [3] (setting [11]) was found to be 23.5%.
For `Cc1ccc2c(n1)C(=O)C(Oc1ccc(F)c(Cl)c1)=CC2=O` [Compound 10, 7-(3-Chloro-4-fluorophenoxy)-2-methylquinoline-5,8-dione], the inhibition at 10 µM in assay [2] (setting [4]) was 0%; in assay [2] (setting [5]), -7.2%; in assay [2] (setting [6]), -7.7%; in assay [2] (setting [7]), -6.5%; in assay [3] (setting [8]) it was 0%; in assay [3] (setting [9]) it was -1.9%. Also, the inhibition at 10 µM in assay [3] (setting [10]) was -4.7%; in assay [3] (setting [11]), 0.3%.
Take `Cc1ccc2c(n1)C(=O)C(Oc1ccc(CCO)cc1)=CC2=O` [Compound 11, 7-(4-(2-Hydroxyethyl)phenoxy)-2-methylquinoline-5,8-dione]: the inhibition at 10 µM in assay [2] (setting [5]) was 19%; in assay [2] (setting [6]), 17.6%; in assay [2] (setting [7]), 20.1%; in assay [3] (setting [9]), 33.1%; in assay [3] (setting [10]), 31.4%; in assay [3] (setting [11]), 34.5%.
As to `Cc1ccc2c(n1)C(=O)C(Oc1ccc(Br)cc1)=CC2=O` [Compound 12, 7-(4-Bromophenoxy)-2-methylquinoline-5,8-dione], the “Mean Growth (%)” value in assay [1] is listed as 90.5%.
`COc1ccc(OC2=CC(=O)c3ccc(C=O)nc3C2=O)cc1` [Compound 13, 7-(4-Methoxyphenoxy)-5,8-dioxo-5,8-dihydroquinoline-2-carbaldehyde]: the inhibition at 10 µM was found to be 14.6% in assay [2] (setting [5]); 4.3% in assay [2] (setting [6]); 22.6% in assay [2] (setting [7]); 39.7% in assay [3] (setting [9]); 38.1% in assay [3] (setting [10]); 41.1% in assay [3] (setting [11]).
Turning to `COc1cccc(OC2=CC(=O)c3ccc(C=O)nc3C2=O)c1` [Compound 14, 7-(3-Methoxyphenoxy)-5,8-dioxo-5,8-dihydroquinoline-2-carbaldehyde], the inhibition at 10 µM is -6.7% in assay [2] (setting [5]); -8.6% in assay [2] (setting [6]); -4.9% in assay [2] (setting [7]); 0.4% in assay [3] (setting [9]); -1.7% in assay [3] (setting [10]); 2% in assay [3] (setting [11]).
In the case of `O=Cc1ccc2c(n1)C(=O)C(Oc1ccc(F)cc1)=CC2=O` [Compound 15, 7-(4-Fluorophenoxy)-5,8-dioxo-5,8-dihydroquinoline-2-carbaldehyde], the inhibition at 10 µM amounted to 11.1% in assay [2] (setting [5]); 6.2% in assay [2] (setting [6]); 15.2% in assay [2] (setting [7]); 22.1% in assay [3] (setting [9]); 18.1% in assay [3] (setting [10]); 25.3% in assay [3] (setting [11]).
Turning to `O=Cc1ccc2c(n1)C(=O)C(Oc1ccc(F)c(F)c1)=CC2=O` [Compound 18, 7-(3,4-Difluorophenoxy)-5,8-dioxo-5,8-dihydroquinoline-2-carbaldehyde], the inhibition at 10 µM in assay [2] (setting [5]) is -22.7%; in assay [2] (setting [6]) it was -26.7%; in assay [2] (setting [7]), -19.2%; in assay [3] (setting [9]), -16.4%; in assay [3] (setting [10]) it was -19.8%; in assay [3] (setting [11]), -13.7%.
As for `O=Cc1ccc2c(n1)C(=O)C(Oc1ccc(Br)cc1)=CC2=O` [Compound 19, 7-(4-Bromophenoxy)-5,8-dioxo-5,8-dihydroquinoline-2-carbaldehyde], the inhibition at 10 µM in assay [2] (setting [5]) is -0.9%; in assay [2] (setting [6]), -4.1%; in assay [2] (setting [7]), 1.8%; in assay [3] (setting [9]), 3.2%; in assay [3] (setting [10]), 6.8%; in assay [3] (setting [11]), 0.3%.
Regarding `COc1ccc(OC2=CC(=O)c3ccc(CN4CCC[C@@H]4CO)nc3C2=O)cc1` [Compound 20, (R)-2-((2-(Hydroxymethyl)pyrrolidin-1-yl)methyl)-7-(4-methoxyphenoxy)quinoline-5,8-dione], the IC50 in assay [2] was 42.3 µM and 42 µM; in assay [3], 13.2 µM and 13 µM. For the same molecule, the inhibition at 10 µM in assay [2] (setting [4]) amounted to 63%; in assay [2] (setting [5]) it was 63.1%; in assay [2] (setting [6]) it was 61.7%; in assay [2] (setting [7]), 64.3%; in assay [3] (setting [8]), 82%; in assay [3] (setting [9]) it was 81.6%. Also, the inhibition at 10 µM amounted to 81.2% in assay [3] (setting [10]) and 81.9% in assay [3] (setting [11]).
`O=C1C=C(Oc2ccc(F)cc2)C(=O)c2nc(CN3CCC[C@@H]3CO)ccc21` [Compound 21, (R)-7-(4-Fluorophenoxy)-2-((2-(hydroxymethyl)pyrrolidin-1-yl)methyl)quinoline-5,8-dione]: the inhibition at 10 µM was 70% in assay [2] (setting [4]); 69.7% in assay [2] (setting [5]); 62% in assay [2] (setting [6]); 75.8% in assay [2] (setting [7]); 43% in assay [3] (setting [8]); 43.2% in assay [3] (setting [9]). Also, the inhibition at 10 µM in assay [3] (setting [11]) was 43.4%.
